Data: US11091482B2, “Isoxazolyl-carbonyloxy azabicyclo[3.2.1]octanyl compounds as FXR activators” (ARDELYX, INC., priority 2016, dated 2021)

How the values were obtained:
[1] = molecular target: ligand binding domain of human FXR (Homo sapiens (Human), UniProt Q96RI1); test: FXR ligand binding assay (LanthaScreen FRET); details: for FXR pEC50 / % Efficacy: FXR ligand binding assay; for FXR pEC50: -log EC50; for % Efficacy: extent of activation relative to GW4064; for Emax: read-out: % Efficacy;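 on all read-outs here: TR-FRET coactivator recruitment: ligand-induced binding of fluorescein-labelled SRC2-2 peptide to GST-tagged FXR LBD detected via Tb anti-GST antibody, serial compound dilutions, 3-parameter logistic fit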
Protocol: The affinity of FXR ligands for the ligand binding domain of FXR was determined using a commercially available human FXR ligand binding assay (LanthaScreen, Thermofisher Cat #PV4833). […] Binding of FXR ligands to the FXR ligand binding domain promotes binding of the fluorescein-labelled SRC2-2 peptide. This causes a FRET signal between the terbium-labelled anti-GST antibody and the fluorescein-labelled SRC peptide which are both bound to the FXR ligand binding domain.
Test compounds are dissolved in DMSO and a 3-fold serial dilution series is generated, then further diluted into assay buffer. The compounds are mixed with 5 nM GST-tagged FXR ligand binding domain, 5 nM Tb-labelled anti-GST antibody and 500 nM fluorcscein-labelled SRC2-2 peptide in a pH 7.4 buffer. The reaction is incubated at room temperature for 1 hour, then the FRET signal is measured as the ratio of the 520 nm/495 nm emission following excitation at 340 nm. The change in FRET signal is plotted against the test article concentration and fit to a 3-parameter logistical equation.

[2] = molecular target: human Farnesoid X receptor ligand-binding domain/Gal4 DNA binding domain chimera (Homo sapiens (Human), UniProt Q96RI1); test: Cell-based FXR beta-lactamase reporter assay (FXR-UAS-bla HEK 293T cells); details: for FXR pEC50 / % Efficacy / EC50: cellular FXR beta-lactamase reporter assay; for FXR pEC50 / EC50: -log EC50; for % Efficacy: extent of activation relative to GW4064; for EC50: read-out: FXR pEC50 (converted); for Emax: HEK-293T, read-out: % Efficacy
Protocol: FXR activation was measured using a cell line and procedure obtained from Life Technologies (Cat #K1691). FXR-UAS-bla HEK 293T cells contain a human Farnesoid X receptor ligand-binding domain/Gal4 DNA binding domain chimera stably integrated into the CellSensor® UAS-bla HEK 293T cell line. The CellSensor® UAS-bla HEK 293T contains a beta-lactamase reporter gene under control of a UAS response element stably integrated into HEK 293T cells. Activation of FXR by bound ligands results in transcriptional activation of the beta-lactamase reporter gene, which is detected via assay of beta-lactamase activity. Cells are harvested and diluted into assay medium containing phenol red-free DMEM supplemented with 2% Charcoal-stripped FBS, pyruvate, non-essential amino acids. Cells are then transferred to a 384 well assay plate. Test compounds are dissolved in DMSO and a 3-fold serial dilution series is generated, then further diluted into assay medium. […] A FRET-based […] is loaded into cells as its acetomethoxy ester. Intracellular esterases liberate free CCF4, a cephalosporin core linking 7-hydroxycoumarin to fluorescein. In the presence of beta-lactamase activity produced in the presence of FXR agonists, cleavage of CCF4 spatially separates the two dyes and disrupts FRET, so that exciting the coumarin at 409 nm now produces a blue fluorescence signal at 447 nm. The change in FRET signal is plotted against the test compound concentration and fit to a 3-parameter logistical equation.

ligand binding domain of human FXR, sequence (Q96RI1 262-486): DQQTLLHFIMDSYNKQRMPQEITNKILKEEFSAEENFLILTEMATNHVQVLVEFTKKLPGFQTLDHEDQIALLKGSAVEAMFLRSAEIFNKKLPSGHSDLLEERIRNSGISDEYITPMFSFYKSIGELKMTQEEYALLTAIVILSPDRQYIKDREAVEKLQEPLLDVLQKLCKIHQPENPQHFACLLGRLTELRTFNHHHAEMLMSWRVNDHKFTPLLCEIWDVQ
human Farnesoid X receptor ligand-binding domain/Gal4 DNA binding domain chimera, sequence (Q96RI1 262-486, stated change not applied): as the sequence (Q96RI1 262-486) above

SMILES | FXR pEC50 [1] | % Efficacy [1] | FXR pEC50 [2] | % Efficacy [2] | Emax [1] | EC50 [2] | Emax [2]
O=C(O)c1cc(F)c2nc(N3[C@@H]4CC[C@H]3C[C@@H](OC(=O)c3c(-c5c(Cl)cccc5OC(F)F)noc3C3CC3)C4)sc2c1 [Compound I-15, 2-[(1R,3R,5S)-3-{3-[2-chloro-6-(difluoromethoxy)phenyl]-5-cyclopropyl-1,2-oxazole-4-carbonyloxy}-8-azabicyclo[3.2.1]octan-8-yl]-4-fluoro-1,3-benzothiazole-6-carboxylic Acid] | 7.4 | 71% | 7.4 | 108% | – | – | –
O=C(Cc1c(-c2c(Cl)cccc2Cl)noc1C1CC1)O[C@H]1C[C@H]2CC[C@@H](C1)N2c1nc2c(F)cc(C(=O)O)cc2s1 [Compound I-32, 2-[(1R,3R,5S)-3-({2-[5-cyclopropyl-3-(2,6-dichlorophenyl)-1,2-oxazol-4-yl]acetyl}oxy)-8-azabicyclo[3.2.1]octan-8-yl]-4-fluoro-1,3-benzothiazole-6-carboxylic Acid] | 7.4 | 34% | 6.4 | 86% | – | – | –
O=C(OCC(=O)N(CCO)CCO)c1cc(F)c2nc(N3[C@@H]4CC[C@H]3C[C@@H](OC(=O)c3c(-c5c(Cl)cccc5Cl)noc3C3CC3)C4)sc2c1 [Compound I-64, [bis(2-hydroxyethyl)carbamoyl]methyl 2-[(1R,3R,5S)-3-[5-cyclopropyl-3-(2,6-dichlorophenyl)-1,2-oxazole-4-carbonyloxy]-8-azabicyclo[3.2.1]octan-8-yl]-4-fluoro-1,3-benzothiazole-6-carboxylate] | 6.6 | – | – | – | 32% | < 31.6 nM | –
CCc1cc(C(=O)O)cc2sc(N3[C@@H]4CC[C@H]3C[C@@H](OC(=O)c3c(-c5c(Cl)cccc5Cl)noc3C3CC3)C4)nc12 [Compound I-60, 2-[(1R,3R,5S)-3-[5-cyclopropyl-3-(2,6-dichlorophenyl)-1,2-oxazole-4-carbonyloxy]-8-azabicyclo[3.2.1]octan-8-yl]-4-ethyl-1,3-benzothiazole-6-carboxylic Acid] | 7 | – | – | – | 119% | 6.31 nM | 104%
CCCS(=O)(=O)NC(=O)c1cc(F)c2nc(N3[C@@H]4CC[C@H]3C[C@@H](OC(=O)c3c(-c5c(Cl)cccc5Cl)noc3C3(F)CC3)C4)sc2c1 [Compound I-62, (1R,3R,5S)-8-{4-fluoro-6-[(propane-1-sulfonyl)carbamoyl]-1,3-benzothiazol-2-yl}-8-azabicyclo[3.2.1]octan-3-yl 3-(2,6-dichlorophenyl)-5-(1-fluorocyclopropyl)-1,2-oxazole-4-carboxylate] | 7.4 | – | – | – | 145% | 20 nM | 107%
O=C(O)c1cc(F)cc(S(=O)(=O)N2[C@@H]3CC[C@H]2C[C@@H](OC(=O)c2c(-c4c(Cl)cccc4Cl)noc2C2CC2)C3)c1 [Compound I-56, 3-{[(1R,3R,5S)-3-[5-cyclopropyl-3-(2,6-dichlorophenyl)-1,2-oxazole-4-carbonyloxy]-8-azabicyclo[3.2.1]octan-8-yl]sulfonyl}-5-fluorobenzoic Acid] | – | – | – | – | 56% | 631 nM | 78%
O=C(NS(=O)(=O)C1CC1)c1ccc(N2[C@@H]3CC[C@H]2C[C@H](OC(=O)c2c(-c4c(Cl)cccc4Cl)noc2C2CC2)C3)cc1 [Compound I-48, (1R,3S,5S)-8-{4-[(cyclopropanesulfonyl)carbamoyl]phenyl}-8-azabicyclo[3.2.1]octan-3-yl 5-cyclopropyl-3-(2,6-dichlorophenyl)-1,2-oxazole-4-carboxylate] | 8.2 | 124% | 8.6 | 130% | – | – | –
COc1cc(C(=O)O)cc2sc(N3[C@@H]4CC[C@H]3C[C@@H](OC(=O)c3c(-c5c(Cl)cccc5Cl)noc3C3CC3)C4)nc12 [Compound I-8, 2-[(1R,3R,5S)-3-[5-Cyclopropyl-3-(2,6-dichlorophenyl)-1,2-oxazole-4-carbonyloxy]-8-azabicyclo[3.2.1]octan-8-yl]-4-methoxy-1,3-benzothiazole-6-carboxylic Acid] | – | – | – | – | 105% | 3.98 nM | 114%
CS(=O)(=O)NC(=O)c1ccc(N2[C@@H]3CC[C@H]2C[C@@H](OC(=O)c2c(-c4c(Cl)cccc4Cl)noc2C2CC2)C3)c(Cl)c1 [Compound I-52, (1R,3R,5S)-8-[2-chloro-4-(methanesulfonylcarbamoyl)phenyl]-8-azabicyclo[3.2.1]octan-3-yl 5-cyclopropyl-3-(2,6-dichlorophenyl)-1,2-oxazole-4-carboxylate] | – | – | – | – | 110% | 15.8 nM | 109%
O=C(O)c1ccc(N2[C@@H]3CC[C@H]2C[C@@H](OC(=O)c2c(-c4c(Cl)cccc4Cl)noc2C2CC2)C3)cc1C(F)(F)F [Compound I-37, 4-[(1R,3R,5S)-3-[5-cyclopropyl-3-(2,6-dichlorophenyl)-1,2-oxazole-4-carbonyloxy]-8-azabicyclo[3.2.1]octan-8-yl]-2-(trifluoromethyl)benzoic acid] | 7.7 | – | – | – | 50% | 100 nM | 93%
Cc1cc(C(=O)O)cc2sc(N3[C@@H]4CC[C@H]3C[C@@H](OC(=O)c3c(-c5c(Cl)cccc5Cl)noc3C3CC3)C4)nc12 [Compound I-11, 2-[(1R,3R,5S)-3-[5-Cyclopropyl-3-(2,6-dichlorophenyl)-1,2-oxazole-4-carbonyloxy]-8-azabicyclo[3.2.1]octan-8-yl]-4-methyl-1,3-benzothiazole-6-carboxylic Acid] | – | – | – | – | 110% | 2.51 nM | 121%
COc1cc(C(=O)O)cc2sc(N3[C@@H]4CC[C@H]3C[C@@H](OC(=O)c3c(-c5c(F)cccc5F)noc3C3CC3)C4)nc12 [Compound I-17, 2-[(1R,3R,5S)-3-[5-cyclopropyl-3-(2,6-difluorophenyl)-1,2-oxazole-4-carbonyloxy]-8-azabicyclo[3.2.1]octan-8-yl]-4-methoxy-1,3-benzothiazole-6-carboxylic Acid] | – | – | – | – | 44% | 126 nM | 112%
O=C(O)c1cc(F)c2nc(N3[C@@H]4CC[C@H]3C[C@@H](OC(=O)c3c(-c5c(F)cccc5F)noc3C3CC3)C4)sc2c1 [Compound I-16, 2-[(1R,3R,5S)-3-[5-cyclopropyl-3-(2,6-difluorophenyl)-1,2-oxazole-4-carbonyloxy]-8-azabicyclo[3.2.1]octan-8-yl]-4-fluoro-1,3-benzothiazole-6-carboxylic Acid] | 7.4 | 47% | 6.7 | 110% | – | – | –
O=C(O)c1cc(C(F)(F)F)c2nc(N3[C@@H]4CC[C@H]3C[C@@H](OC(=O)c3c(-c5c(Cl)cccc5Cl)noc3C3CC3)C4)sc2c1 [Compound I-10, 2-[(1R,3R,5S)-3-[5-cyclopropyl-3-(2,6-dichlorophenyl)-1,2-oxazole-4-carbonyloxy]-8-azabicyclo[3.2.1]octan-8-yl]-4-(trifluoromethyl)-1,3-benzothiazole-6-carboxylic Acid] | – | – | – | – | 102% | 25.1 nM | 104%
O=C(O)c1ccc(N2[C@@H]3CC[C@H]2C[C@@H](OC(=O)c2c(-c4c(Cl)cccc4Cl)noc2C2CC2)C3)cc1F [Compound I-41, 4-[(1R,3R,5S)-3-[5-cyclopropyl-3-(2,6-dichlorophenyl)-1,2-oxazole-4-carbonyloxy]-8-azabicyclo[3.2.1]octan-8-yl]-2-fluorobenzoic acid] | 7.7 | – | – | – | 92% | 20 nM | 117%
